Data reported in article PMC5351510 (Future Science OA, 2017).
Converted amounts (≈) assume the structure as drawn. Where two headings read alike, the source gives them in different places.

Legend:
[1] = Equilibrium solubility studies (shaker, HPTLC); assay type: physicochemical; conditions: experimental, at 25°C, mean of three
Method: Equilibrium solubility is the most vital physicochemical property that reflects the bioavailability of a compound. […] The equilibrated samples were centrifuged at 5000 r.p.m. (1398 × g) for 10 min to remove any undissolved drug and the supernatant was analyzed using HPTLC at a λmax of 262 nm. All the media were prepared according to the composition reported by Dressman and co-workers.

[2] = Partition coefficient (log P), shake-flask octanol/water; assay type: physicochemical; conditions: experimental, 25.0 ± 0.1°C
Method: Lipophilicity is a molecular property of any compound that is vital to discern the extent of distribution in the body. The logarithm of octanol/water partition coefficient, in other words, log P, is the most extensively used parameter to quantify lipophilicity. The value of log P is a valuable predictor to determine the passive transport of drugs through the lipoid membranes of the human body. […] For this, first presaturation of the solvents (octanol and water) was conducted for 24 h. Then, Mgf in a concentration of 5 mg/100 ml was added to the equilibrated mixture. After separation of the equilibrated phases by centrifugation at 10,000 r.p.m. for 5 min, the concentration of the solute was determined in the aqueous phase using HPTLC at a λmax 262 nm for each sample:Equation 1 [drawing 2]

[3] = Determination of log D, aqueous phase pH 7.4; assay type: physicochemical; conditions: octanol / physiological buffer (aqueous phase at pH 7.4), experimental
Excerpt: Log D, the logarithm of distribution constant or apparent partition, therefore, is a better descriptor of the lipophilicity of an ionizable compound that is likely to be charged at the physiological pH [26]. This can be determined in a similar manner to log P, but the aqueous phase, instead of being pure water, is adjusted to pH 7.4 using a physiological buffer:Equation 2 [drawing 3]

[4] = In situ single pass intestinal perfusion studies; assay type: in vivo, Wistar rats; conditions: both sexes, Wistar, other: in situ single pass perfusion of the jejunum; experimental, rat jejunum, perfusion rate 0.2 ml/min
Method: The in situ single pass intestinal perfusion studies were performed in a manner reported previously by our group in the past. Three unisex Wistar rats (250–280 g) were fasted for at least 24 h prior to the study, while water was provided ad libitum. The animals were procured from University Centre Animal House, after obtaining the requisite approval from Animals Institutional Committee, Chandigarh (PU/IAEC/S/14/104). Anesthesia was induced by an intraperitoneal injection of thiopental sodium in the dose of 50 mg/kg of the body weight of the rats. After making an incision in the abdomen, provisions for inlet and outlet were made at proximal part of the jejunum, 2–4 cm below the ligament of Trietz and about 10 cm distal to the first incision. […] Finally, 1.5 ml of perfusate was added to the ethereal extract and the concentration of Mgf in the mixture was determined using HPTLC technique at 254 nm by applying the principles of Analytical Quality by Design. The value of effective permeability (Peff) was subsequently calculated using Equation 3 [31].Equation 3 [drawing 4]
where Q is the flow rate, Cin and Cout are the respective inlet and outlet concentrations, r is the radius of the intestine and l is the length of the intestine measured after completion of perfusion.

MDR1 transporters = target: T1, MDR1 transporters (Homo sapiens, UniProt P08183); test: P-gp efflux assay (multidrug resistance direct dye efflux kit), Rhodamine-123 dye; assay type: cell-based; conditions: experimental, Caco-2 cells
T1 construct: overexpressed MDR1, MRP1 and BCRP membrane pumps on Caco-2 cells; endogenous in cells; host or cells: Caco-2 cells
T1 sequence (P08183 whole entry): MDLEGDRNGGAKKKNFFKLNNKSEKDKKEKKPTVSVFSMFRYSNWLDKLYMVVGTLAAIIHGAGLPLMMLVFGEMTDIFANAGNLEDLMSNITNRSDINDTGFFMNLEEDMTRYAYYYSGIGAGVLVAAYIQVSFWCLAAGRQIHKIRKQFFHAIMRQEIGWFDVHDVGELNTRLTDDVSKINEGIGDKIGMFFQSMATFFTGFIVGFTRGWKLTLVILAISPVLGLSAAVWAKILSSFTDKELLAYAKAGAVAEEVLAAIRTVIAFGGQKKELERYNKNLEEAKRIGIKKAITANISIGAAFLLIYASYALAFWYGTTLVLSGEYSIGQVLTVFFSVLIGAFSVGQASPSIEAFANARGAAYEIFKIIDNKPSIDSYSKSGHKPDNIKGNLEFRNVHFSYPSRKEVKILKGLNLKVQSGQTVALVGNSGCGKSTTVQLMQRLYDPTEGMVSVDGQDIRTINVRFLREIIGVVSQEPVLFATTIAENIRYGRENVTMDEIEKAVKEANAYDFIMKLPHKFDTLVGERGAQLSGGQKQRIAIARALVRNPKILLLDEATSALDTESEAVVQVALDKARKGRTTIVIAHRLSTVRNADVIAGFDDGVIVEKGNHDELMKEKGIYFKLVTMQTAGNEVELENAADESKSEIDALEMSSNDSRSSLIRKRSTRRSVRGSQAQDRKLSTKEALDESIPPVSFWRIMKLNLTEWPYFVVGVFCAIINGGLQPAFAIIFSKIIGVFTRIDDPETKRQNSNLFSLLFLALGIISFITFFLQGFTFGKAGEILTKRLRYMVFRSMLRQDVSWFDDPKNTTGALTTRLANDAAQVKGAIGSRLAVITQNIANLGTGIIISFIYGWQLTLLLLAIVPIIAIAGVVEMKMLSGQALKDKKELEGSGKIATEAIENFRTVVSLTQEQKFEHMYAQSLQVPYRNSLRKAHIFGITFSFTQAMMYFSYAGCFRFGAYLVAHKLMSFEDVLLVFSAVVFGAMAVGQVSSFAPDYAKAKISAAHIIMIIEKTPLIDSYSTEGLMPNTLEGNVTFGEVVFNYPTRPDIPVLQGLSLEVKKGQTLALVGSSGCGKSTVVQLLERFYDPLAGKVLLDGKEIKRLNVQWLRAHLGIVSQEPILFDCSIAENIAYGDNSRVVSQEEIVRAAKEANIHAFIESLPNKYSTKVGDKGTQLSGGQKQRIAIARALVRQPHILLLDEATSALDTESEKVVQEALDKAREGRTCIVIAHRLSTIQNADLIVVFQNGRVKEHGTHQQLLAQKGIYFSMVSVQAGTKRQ
Method: Furthermore, the multidrug resistance directs dye efflux assay kit (Chemicon® International, CA, USA and Serologicals® Corporations, GA, USA) was employed, in which the Caco-2 cells were loaded with rhodamine 123 (Rh-123) and diethyloxacarbocyanine (DiOC2) dyes in the presence or absence of vinblastine. In order to access the functional activity of the inhibition of overexpressed MDR1, MRP1 and BCRP membrane pumps on Caco-2 cells in the presence of Mgf, the fluorescence intensity was measured in a Tecan fluorescence microplate reader (Tecan Ltd, Männedorf, Switzerland) at an excitation wavelength of 485 nm and an emission wavelength of 530 nm. For the purpose, Caco-2 cells in the concentration of 2.5 × 10^5 were incubated with Rh-123 alone and with vinblastine, and Rh-123-loaded Mgf at 37°C to access the inhibitory activity of Mgf on MDR1 transporters. Likewise, to estimate the ability of Mgf to act as a substrate for BCRP transportors, DiOC2 dye was employed. On the similar heels, Caco-2 cells (2.5 × 10^5) were incubated with DiOC2 alone and with vinblastine, and DiOC2-loaded Mgf at 37°C.

[5] = cited from earlier work
[6] = at 45°C; cited from earlier work
[7] = cited from earlier work; remark: listed apart in the source
P-gp = conditions: cited from earlier work

## O=c1c2cc(O)c(O)cc2oc2cc(O)c([C@@H]3O[C@H](CO)[C@@H](O)[C@H](O)[C@H]3O)c(O)c12 [mangiferin, (1S)-1,5-Anhydro-1-(1,3,6,7-tetrahydroxy-9-oxo-9H-xanthen-2-yl)-D-glucitol]
[1]; fasted-state simulated gastric fluid, read-out: Solubility in fasted-state simulated gastric fluid
  solubility at 72 h: 140 µg/mL (≈ 331 µM)
[1]; fasted-state simulated intestinal fluid, fassif, thermodynamic from solid, read-out: Solubility in fasted-state simulated intestinal fluid
  solubility at 72 h: 1480 µg/mL (≈ 3500 µM)
[1]; fed-state simulated intestinal fluid, fessif, thermodynamic from solid, read-out: Solubility in fed-state simulated intestinal fluid
  solubility at 72 h: 3980 µg/mL (≈ 9420 µM)
[1]; thermodynamic from solid, water, read-out: Aqueous solubility
  solubility at 72 h: 380 µg/mL (≈ 900 µM)
[2]
  logP: -0.65
[3]
  logD: -0.79
[4]
  effective permeability (Peff): 16 ×10⁻⁶ cm/s
MDR1 transporters
  P-gp substrate: Yes
[5]; plasma
  AUC0–t rise in streptozotocin-induced diabetic rats compared with normal rats: 2.35 fold
  Cmax rise in streptozotocin-induced diabetic rats compared with normal rats: 2.79 fold
[5]; rats, oral
  Maximum plasma levels: 715.04 ± 600.14 ng/mL
  Time of maximum plasma levels after oral intake: 0.72 h
[6]
  Aqueous solubility: 0.25 mg/ml at 45 °C
[7]
  log P: -0.09 to -0.36
P-gp
  P-gp substrate: Yes
